One experiment relates to HL-60. Kind of experiment: Cytotoxicity against human HL60 cells after 2 days by MTT assay. It is filed as functional, cell-based. The note with it: HL-60, 48 h. For orientation: Formazan colour is commonly taken as a measure of viable cells.
For experiment [1], the target named is T1, Proteasome Macropain subunit MB1 (Homo sapiens, UniProt P28074).
T1 sequence (P28074 whole entry): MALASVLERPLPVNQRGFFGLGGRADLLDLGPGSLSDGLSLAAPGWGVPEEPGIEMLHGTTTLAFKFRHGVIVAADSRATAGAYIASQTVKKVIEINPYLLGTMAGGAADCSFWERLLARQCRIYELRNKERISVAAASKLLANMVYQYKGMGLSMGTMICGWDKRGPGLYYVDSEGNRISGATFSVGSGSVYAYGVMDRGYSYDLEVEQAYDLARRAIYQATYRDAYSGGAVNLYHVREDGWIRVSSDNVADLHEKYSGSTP
Kind of experiment: Inhibition of human erythrocyte 20s proteasome chymotrypsin-like activity using Suc-LLVY-MCA as substrate pretreated for 10 mins followed by substrate addition measured after 3 hrs by spectrophotometric method.

For the compound `C=C1CC[C@H]2C(C)(C)[C@H](O)CC[C@]2(C)[C@H]1CC1=C(O)C(=O)C2=C(C1=O)[C@@]13C=C[C@@H](O)[C@H](O)[C@]1(C2)C(=O)c1c(O)cc(C)cc1C3=O`, the half-inhibitory concentration (IC50) (commonly the midpoint of a concentration-inhibition curve) in the experiment with HL-60 came to 9.3 µM; in experiment [1], 18.5 µM.
